According to patent publication US7186714B2, “Imidazo[1,2-α]pyridine derivatives for the prophylaxis and treatment of herpes viral infections” (SmithKline Beecham Corporation, priority 2001, dated 2007):
pIC50: −log10 of the molar value.

Test system: HSV-1
Test: HSV infection of Vero 76 cells, viral DNA detected by hybridization capture with chemiluminescence
Type: cell-based
Conditions: Human alphaherpesvirus 1; HSV-1 in Vero 76 cells, MOI=0.001, incubated 40–48 hours with test compound
Experimental: Vero 76 cells were maintained in MEM with Earle's salts, L-glutamine, 8% FBS (Hyclone, A-1111-L) and 100 units/mL Penicillin-100 μg/mL Streptomycin. For assay conditions, FBS was reduced to 2%. Cells are seeded into 96-well tissue culture plates at a density of 5×10^4 cells/well after being incubated for 45 min at 37° C. in the presence of HSV-1 or HSV-2 (MOI=0.001). Test compounds are added to the wells and the plates are incubated at 37° C. for 40–48 hours. Cell lysates are prepared as follows: media was removed and replaced with 150 μL/well 0.2 N NaOH with 1% Igepal CA 630 or NP-40. Plates were incubated up to 14 days at room temperature in a humidified chamber to prevent evaporation.
For the detection probe, a gel-purified, digoxigenin-labeled, 710-bp PCR fragment of the HSV UL-15 sequence was utilized. PCR conditions included 0.5 μM primers, 180 μM dTTP, 20 μM dUTP-digoxigenin (Boehringer Mannheim 1558706), 200 μM each of dATP, dCTP, and dGTP, 1×PCR Buffer II (Perkin Elmer), 2.5 mM MgCl2, 0.025 units/μL of AmpliTaq Gold polymerase (Perkin Elmer), and 5 ng of gel-purified HSV DNA per 100 μL Extension conditions were 10 min at 95° C., followed by 30 cycles of 95° C. for 1 min, 55° C. for 30 sec, and 72° C. for 2 min. The amplification was completed with a 10-min incubation at 72° C. Primers were selected to amplify a 728 bp probe spanning a section of the HSV1 UL15 open reading frame (nucleotides 249–977). Single-stranded transcripts were purified with Promega M13 Wizard kits. The final product was mixed 1:1 with a mixture of 6 M GuSCN, 100 mM EDTA and 200 μg/mL herring sperm DNA and stored at 4° C.
The capture DNA plasmid (HSV UL13 region in pUC) was linearized by cutting with XbaI, denatured for 15 min at 95° C. and diluted immediately into Reacti-Bind DNA Coating Solution (Pierce, 17250, diluted 1:1 with TE buffer, pH 8) at 1 ng/μL 75 μL/well were added to Corning (#3922 or 9690) white 96-well plates and incubated at room temperature for at least 4 hrs before washing twice with 300 μL/well 0.2×SSC/0.05% Tween-20 (SSC/T buffer). The plates were then incubated overnight at room temperature with 150 μL/well 0.2 N NaOH, 1% IGEPAL and 10 μg/mL herring sperm DNA.
Twenty-seven (27) μL of cell lysate was combined with 45 μL of hybridization solution (final concentration: 3M GuSCN, 50 mM EDTA, 100 μg/ml salmon sperm DNA, 5×Denhardt's solution, 0.25×APE, and 5 ng of the digoxigenin-labeled detection probe). APE is 1.5 M NH4-acetate, 0.15 M ammonium phosphate monobasic, and 5 mM EDTA adjusted to pH 6.0. Mineral oil (50 μL) was added to prevent evaporation. The hybridization plates were incubated at 95° C. for 10 minutes to denature the DNA, then incubated at 42° C. overnight. The wells were washed 6× with 300 μL/well SSC/T buffer then incubated with 75 μL/well anti-digoxigenin-HRP-conjugated antibody (Boehringer Mannheim 1207733, 1:5000 in TE) for 30 min at room temperature. The wells were washed 6× with 300 μL/well with PBS/0.05% Tween-20 before 75 μL/well SuperSignal LBA substrate (Pierce) was added. The plates were incubated at room temperature for 30 minutes and chemiluminescence was measured in a Wallac Victor reader.

| Compound | pIC50 |
| --- | --- |
| Fc1ccc(-c2nc3ccc(NC4CCCC4)cn3c2-c2ccnc(NC3CCCC3)n2)cc1 [Example 48, N-Cyclopentyl-3-[2-(cyclopentylamino)-4-pyrimidinyl]-2-(4-fluorophenyl)imidazo[1,2-a]pyridin-6-amine] | 5.68 |
| Fc1ccc(-c2nc3ccccn3c2-c2ccnc(NC3CCCC3)n2)cc1 [Example 49, N-Cyclopentyl-4-[2-(4-fluorophenyl)imidazo[1,2-a]pyridin-3-yl]-2-pyrimidinamine] | 5.48 |
| Fc1ccc(-c2nc3ccc(N4CCOCC4)cn3c2-c2ccnc(NC3CCCC3)n2)cc1 [Example 50, N-Cyclopentyl-4-[2-(4-fluorophenyl)-6-(4-morpholinyl)imidazo[1,2-a]pyridin-3-yl]-2-pyrimidinamine] | 6.74 |
| Fc1ccc(-c2nc3c(NC4CC4)cccn3c2-c2ccnc(NC3CCCC3)n2)cc1 [Example 51, 3-[2-(cyclopentylamino)-4-pyrimidinyl]-N-cyclopropyl-2-(4-fluorophenyl)imidazo[1,2-a]pyridin-8-amine] | 6.29 |
| C=CCOc1ccc(-c2nc3c(NC4CCCC4)cccn3c2-c2ccnc(NC3CCCC3)n2)cc1 [Example 52, 2-[4-(Allyloxy)phenyl]-N-cyclopentyl-3-[2-(cyclopentylamino)-4-pyrimidinyl]imidazo[1,2-a]pyridin-8-amine] | 6.21 |
| c1cc(NC2CCCC2)c2nc(-c3ccc(OCC4CC4)cc3)c(-c3ccnc(NC4CCCC4)n3)n2c1 [Example 53, N-Cyclopentyl-3-[2-(cyclopentylamino)-4-pyrimidinyl]-2-[4-(cyclopropylmethoxy)phenyl]imidazo[1,2-a]pyridin-8-amine] | 6.70 |
| Fc1ccc(-c2nc3c(NC4CCCC4)cc(C(F)(F)F)cn3c2-c2ccnc(NC3CCCC3)n2)cc1 [Example 54, N-Cyclopentyl-3-[2-(cyclopentylamino)-4-pyrimidinyl]-2-(4-fluorophenyl)-6-(trifluoromethyl)imidazo[1,2-a]pyridin-8-amine] | 6.08 |
| O=C(O)c1cccc(-c2nc3c(NC4CCCC4)cccn3c2-c2ccnc(NC3CCCC3)n2)c1 [Example 55, 3-{8-(Cyclopentylamino)-3-[2-(cyclopentylamino)pyrimidin-4-yl]imidazo[1,2-a]pyridin-2-yl}benzoic acid] | 5.15 |
| CCCCNc1cccn2c(-c3ccnc(NC4CCCC4)n3)c(-c3cccc(N=[N+]=[N-])c3)nc12 [Example 56, 2-(3-Azidophenyl)-N-butyl-3-[2-(cyclopentylamino)pyrimidin-4-yl]imidazo[1,2-a]pyridin-8-amine] | 5.54 |
| Fc1ccc(-c2nc3c(OCc4ccccc4)cccn3c2-c2ccnc(NC3CCCC3)n2)cc1 [Example 57, 4-[8-(Benzyloxy)-2-(4-fluorophenyl)imidazo[1,2-a]pyridin-3-yl]-N-cyclopentylpyrimidin-2-amine] | 6.01 |
| Oc1cccn2c(-c3ccnc(NC4CCCC4)n3)c(-c3ccc(F)cc3)nc12 [Example 58] | 6.70 |
